# Experimental data taken from publication PMC5295395, “Inhibition of PlexA1-mediated brain tumor growth and tumor-associated angiogenesis using a transmembrane domain targeting peptide” (Oncotarget, 2016).
# Legend:
# [1] = test system: U118MG-Luc glioma tumors in nude mice; assay: heterotopic (subcutaneous) U118MG-Luc xenograft, tumor growth; format: in vivo, human cells in mouse
# Method: To address the biological consequences of MTP-PlexA1-mediated inhibition of PlexA1 we used the U118MG-Luc glioma cell line genetically engineered to express the luciferase reporter gene. […] Cells were then grafted subcutaneously and tumor growth was monitored every 5 days for a total period of 20 days. […] The quantitative analysis of the cumulated luminescent signal acquired all along the protocol confirmed the strong reduction of tumor development translating into a marked 75% reduction of the averaged luminescent signal at the end point (Figure 6C). […] However, responses were strong for 8 out of 10 mice with some responses close to 100%, all of them being at least Partial Response (PR) (Figure 6D). In order to clarify the mechanism by which MTP-PlexA1 is exerting tumor growth inhibition we collected tumors and analyzed them histologically.
# (§1) (B) Representative photographs illustrating the kinetic of tumor growth over 20 days in the two experimental groups. (C) Cumulated growth curves of the tumors (UA: Arbitrary Unit). (D) Waterfall plot of best response representing the percent change in tumor volume of individual treated animals (grey bars, n = 10) compared to the average tumor volume increased determined in the control group (dark bars, n = 10). (E) Proximity ligation assay on tumor slices showing that MTP-PlexA1 (10^−7 M) decreases the number of PlexA1-NRP1 interactions in U118MG cells. (F) Representative microphotographs and related quantification of PH3 positive cells in tumor slices (G) Representative microphotographs and related quantification of CD31 positive regions in tumor slices (% CD31 per μm² of tumors).
# (§2) Experiments were performed according to the Guide for Care and Use of Laboratory Animals (E67-6-482-21) and the European Directive with approval of the regional ethical committee (Reference AL/55/62/02/13). Heterotopic grafts were produced by injecting 106 cells in the flank of pathogen-free NMRI nude mice (Janvier, Le Genest Saint Isle, France). Intraperitoneal administration of vehicle (LDS 72 μM) or MTP-PlexA1 treatment (10–7 M) were done every days during 20 days when the tumors reached a minimal volume of 100 mm3. For the experiment conducted with cancer stem cell line NCH644mCherry, we performed bilateral grafting of 10^6 cells on each flank of 20 nude mice without treatment or pre-incubated for 1 hour with MTP-PlexA1 at 10–7 M. After 5 days, the fluorescence emission of developing tumors was recorded using the NightOwl system (Berthold) using appropriate excitation and emission filters (580 nm/620 nm respectively).
# [2] = test system: PH3 positive cells in U118MG-Luc tumors; assay: PH3 immunostaining of U118MG-Luc xenograft tumor sections; format: in vivo, human cells in mouse; conditions: 5 sections per tumor, vs control; p = 0.0022, Mann Whitney
# Method: To address the biological consequences of MTP-PlexA1-mediated inhibition of PlexA1 we used the U118MG-Luc glioma cell line genetically engineered to express the luciferase reporter gene. […] Cells were then grafted subcutaneously and tumor growth was monitored every 5 days for a total period of 20 days. […] The quantitative analysis of the cumulated luminescent signal acquired all along the protocol confirmed the strong reduction of tumor development translating into a marked 75% reduction of the averaged luminescent signal at the end point (Figure 6C). […] In order to clarify the mechanism by which MTP-PlexA1 is exerting tumor growth inhibition we collected tumors and analyzed them histologically.
# as §1, with “(C) Cumulated growth curves of the tumors (UA: Arbitrary Unit).” left out, “(E) Proximity ligation assay on tumor slices showing that MTP-PlexA1 (10^−7 M) decreases the number of PlexA1-NRP1 interactions in U118MG cells.” left out
# U373MG cells = assay: 3D migration assay, U373MG spheroids in plasma clot; format: cell-based, human; conditions: 3D plasma clot, 24 h, VEGF 100 ng/ml, MTP-PlexA1 10–7 M
# Method: Supplementary Figure S6: The anti-tumor effect of MTP-PlxA1 was verified in U373MG human GBM line. We found […]
# Because PlexA1 is involved in cell migration we also performed a 3D migration assay. U373MG cells were grown as cell aggregates (micro tumor-like spheroids) for 24 h in plasma clot with or without VEGF. […]
# migration that formed cell chains invading the 3D substrate as previously described (12). Strikingly, VEGF-induced cell migration was abolished when MTP-PlexA1 at 10–7 M was added to the cultures. […]
# of PlexA1, this part of the study exemplified the therapeutic potential of MTP-PlexA1 because this peptide was able to block two major mechanisms of tumor progression.
# (Stable Disease) and 62.5% PR (Partial Response).
# (1 picture or pasted object on this page, not shown here)
# [3] = test system: NCH644 glioma stem cell tumors in nude mice; assay: NCH644-mCherry xenograft in nude mice, cells pre-incubated with peptide; format: in vivo, human cells in mouse; conditions: 5 days
# Method: Mounting evidence supports a crucial role of cancer stem cells in the initiation or relapse of tumors. This is particularly the case for gliomas. Thus, we decided to evaluate to what extent MTP-PlexA1 would affect glioma stem cell (GSC) growth. To this end, we used the NCH644 human cell line derived from a patient biopsy. […] We next performed a sphere forming assay in which cells were plated into 96-well plates at a low density (30 cells per well) to monitor production of clones from individual cells growing as non-adherent gliomaspheres. A minimum of 30 cells per well was required to allow sufficient sphere production (composed of at least 8 cells) in a time frame compatible with drug testing. Visual control of sphere formation on a daily basis confirmed that cellular edifices were arising from single cells and not due to cell clumping. […] To address whether this inhibitory effect is sufficient to impede tumor development in vivo we performed a xenograft experiment. NCH644 GCS were grafted in the flank of nude mice in a way to obtain two bilateral tumors derived from either control cells without treatment or from cells that had been pre-incubated with MTP-PlexA1. This was done using a fluorescent version of the NCH644 cell line (mCherry-NCH644) allowing live monitoring of tumor appearance (Figure 7E). […]
# as §2, with “Heterotopic grafts were produced by injecting 106 cells in the flank of pathogen-free NMRI nude mice (Janvier, Le Genest Saint Isle, France). Intraperitoneal administration of vehicle (LDS 72 μM) or MTP-PlexA1 treatment (10–7 M) were done every days during 20 days when the tumors reached a minimal volume of 100 mm3.” left out
# [4] = subcutaneous U118MG-Luc, every day, 1 μg/kg, n = 10
sequence,measurement,setting,value
"TLPAIVGIGGGGGLLLLVIVAVLIAYKRK [MTP-PlexA1, synthetic transmembrane peptide mimicking the TMD of PlexA1]",mice not responding to treatment (waterfall best response),[1]; [4],2 out of 10
same,"mice with strong response, at least Partial Response (PR)",[1]; [4],8 out of 10
same,reduction of averaged luminescent signal at the end point,"[1]; subcutaneous U118MG-Luc, i.p. every day, 1 μg/kg, 20 days",75%
same,"best response, some animals","[1]; waterfall graph, percent change in tumor volume, individual animals",~100%
same,decrease of PH3 positive proliferative cells in tumors,[2],37.3%
same,VEGF-induced U373MG tumor cell migration,U373MG cells,abolished
same,change of number of detectable tumors,"[3]; NCH644 cells pre-incubated 1 h at 10–7 M, p = 0.0032, Mann Whitney",−71.4%
same,detectable tumors after grafting pre-incubated cells,"[3]; NCH644 cells pre-incubated 1 h at 10–7 M, untreated control 14 tumors in 20 mice, p = 0.0032",4 out of 20
same,size of tumors that were able to grow,"[3]; NCH644 cells pre-incubated, fluorescence, p = 0.4258",comparable to the one of the control group
